Converted amounts (≈) assume the structure as drawn. Where two headings read alike, the source gives them in different places.
Columns and labels:
[1] = test system: HIV; assay: microbe, parasite or virus in culture; assay type: cell-based
Description: Anti-HIV activity tests in vitro of the compounds according to the present invention were performed as described in J. Med. Chem, 34, 357, 1991. Inhibition by the compounds of virus-induced cytotoxic effect in MT-4 cells was measured as follows.
(§1) MT-4 cells were suspended in culture media at 2.5×10^5 cells/ml and infected with 1000 CCID50 (50% cell culture infective dose) of HIV. Immediately after virus infection, 100 μl of cell suspension was brought into each well of a flat-bottomed microtitray containing various concentrations of the test compounds. After 4 or 5 days incubation at 37° C., efficacy of the compounds was determined by the MTT method. Cytotoxicity of the compounds was assessed in parallel with their antiviral activity, based on viability of mock-infected host cells as determined by the MTT method.

[2] = test system: mock-infected MT-4 cells; assay: Cytotoxicity based on viability of mock-infected host cells (MTT method); assay type: cell-based
Description: as §1

[3] = HIV-infected MT-4 cells, MTT method, 4 or 5 days at 37° C.
[4] = mock-infected MT-4 cells, MTT method, 4 or 5 days at 37° C.
[5] = Human immunodeficiency virus 1, MT4, HIV-infected MT-4 cells, MTT method, 4 or 5 days at 37° C., read-out: ED50 (the source's name)
[6] = Human immunodeficiency virus 1, MT4, read-out: ED50

Compound | ED50 [1, 3] | CD50 [2, 4] | CD50 [2] | EC50 [1, 5] | melting point | EC50 [1, 6]
1-(2-Naphthalenemethyl)-5-ethyl-6-(3,5-dimethylbenzoyl)-2,4-pyrimidinedione [Example 95] | 0.013 µg/mL | 16.50 µg/mL | – | – | – | –
1-(2-Naphthalenemethyl)-5-ethyl-6-(3,5-dimethylphenoxy)-2,4-pyrimidinedione [Example 93] | 0.013 µg/mL | 83.22 µg/mL | – | – | – | –
1-(2-Naphthalenemethyl)-5-ethyl-6-(3,5-dimethylphenyl)thio-2,4-pyrimidinedione [Example 91] | 0.004 µg/mL | 1.27 µg/mL | – | – | – | –
1-(2-Naphthalenemethyl)-5-isopropyl-6-(3,5-dimethyl-benzoyl)-2,4-pyrimidinedione [Example 96] | 0.014 µg/mL | 9.64 µg/mL | – | – | – | –
1-(2-Naphthalenemethyl)-5-isopropyl-6-(3,5-dimethyl-phenyl)thio-2,4-pyrimidinedione [Example 92] | 0.013 µg/mL | 8.93 µg/mL | – | – | – | –
1-(Benzoxazol-2-ylmethyl)-5-isopropyl-6-(3,5-dimethyl-benzoyl-2,4-pyrimidinedione [Example 150] | 0.0031 µg/mL | 7.09 µg/mL | – | – | – | –
1-(Phenacyl)-5-ethyl-6-(3,5-dimethylbenzoyl)-2,425 pyrimidinedione [Example 167] | 0.0569 µg/mL | – | 43.31 µg/mL | – | – | –
1-(Phenacyl)-5-ethyl-6-(3,5-dimethylphenoxy)-2,415 pyrimidinedione [Example 165] | >58.11 µg/mL | – | 58.11 µg/mL | – | – | –
1-(Phenacyl)-5-isopropyl-6-(3,5-dimethylbenzoyl)-2,430 pyrimidinedione [Example 168] | 0.0174 µg/mL | – | 5.48 µg/mL | – | – | –
1-(Phenacyl)-5-isopropyl-6-(3,5-dimethylphenoxy)-2,420 pyrimidinedione [Example 166] | 0.7562 µg/mL | – | >100.00 µg/mL | – | – | –
Cc1cn([C@H]2C[C@H](N=[N+]=[N-])[C@@H](CO)O2)c(=O)[nH]c1=O [AZT] | 0.0015 µg/mL (≈ 0.00561 µM) | 0.70 µg/mL | – | – | – | –
CCc1c(Sc2cc(C)cc(C)c2)n(CC2CC2)c(=O)[nH]c1=O [Example 1, 1-(Cyclopropyl)methyl-5-ethyl-6-(3,5-dimethylphenyl)thio-2,4-pyrimidinedione] | – | 4.75 µg/mL | – | 0.0027 µg/mL (≈ 0.00817 µM) | 161 to 163 °C | –
Cc1cc(C)cc(Sc2c(C(C)C)c(=O)[nH]c(=O)n2CC2CC2)c1 [Example 2, 1-(Cyclopropyl)methyl-5-isopropyl-6-(3,5-dimethylphenyl)thio-2,4-pyrimidinedione] | – | 12.43 µg/mL | – | < 0.0002 µg/mL | – | –
CCc1c(Oc2cc(C)cc(C)c2)n(CC2CC2)c(=O)[nH]c1=O [Example 3, 1-(Cyclopropyl)methyl-5-ethyl-6-(3,5-dimethylphenoxy)-2,4-pyrimidinedione] | – | >100.00 µg/mL | – | 0.011 µg/mL (≈ 0.035 µM) | – | –
Cc1cc(C)cc(Oc2c(C(C)C)c(=O)[nH]c(=O)n2CC2CC2)c1 [Example 4, 1-(Cyclopropyl)methyl-5-isopropyl-6-(3,5-dimethylphenoxy)-2,4-pyrimidinedione] | – | 12.70 µg/mL | – | < 0.0002 µg/mL | 146 to 148 °C | –
CCc1c(C(=O)c2cc(C)cc(C)c2)n(CC2CC2)c(=O)[nH]c1=O [Example 5, 1-(Cyclopropyl)methyl-5-ethyl-6-(3,5-dimethylbenzoyl)-2,4-pyrimidinedione] | – | 39.4 µg/mL | – | 0.0011 µg/mL (≈ 0.00337 µM) | 234 to 236 °C | –
Cc1cc(C)cc(C(=O)c2c(C(C)C)c(=O)[nH]c(=O)n2CC2CC2)c1 [Example 6, 1-(Cyclopropyl)methyl-5-isopropyl-6-(3,5-dimethylbenzoyl)-2,4-pyrimidinedione] | – | 8.5 µg/mL | – | 0.0022 µg/mL (≈ 0.00646 µM) | 193 to 195 °C | –
CCc1c(Sc2cc(C)cc(C)c2)n(CC2CCC2)c(=O)[nH]c1=O [Example 7, 1-(Cyclobutyl)methyl-5-ethyl-6-(3,5-dimethylphenyl)thio-2,4-pyrimidinedione] | – | 11.73 µg/mL | – | 0.028 µg/mL (≈ 0.0813 µM) | – | –
Cc1cc(C)cc(Sc2c(C(C)C)c(=O)[nH]c(=O)n2CC2CCC2)c1 [Example 8, 1-(Cyclobutyl)methyl-5-isopropyl-6-(3,5-dimethylphenyl)thio-2,4-pyrimidinedione] | – | 5.9 µg/mL | – | 0.013 µg/mL (≈ 0.0363 µM) | – | –

Compound | ED50 [1, 3] | CD50 [2, 4] | CD50 [2] | EC50 [1, 5] | melting point | EC50 [1, 6]
CCc1c(Oc2cc(C)cc(C)c2)n(CC2CCC2)c(=O)[nH]c1=O [Example 9, 1-(Cyclobutyl)methyl-5-ethyl-6-(3,5-dimethylphenoxy)-2,4-pyrimidinedione] | – | >100.00 µg/mL | – | 0.0756 µg/mL (≈ 0.23 µM) | – | –
Cc1cc(C)cc(Oc2c(C(C)C)c(=O)[nH]c(=O)n2CC2CCC2)c1 [Example 10, 1-(Cyclobutyl)methyl-5-isopropyl-6-(3,5-dimethylphenoxy)-2,4-pyrimidinedione] | – | 7.8 µg/mL | – | 0.0147 µg/mL (≈ 0.0429 µM) | – | –
CCc1c(Sc2cc(C)cc(C)c2)n(CC2CCCCC2)c(=O)[nH]c1=O [Example 13, 1-(Cyclohexyl)methyl-5-ethyl-6-(3,5-dimethylphenyl)thio-2,4-pyrimidinedione] | – | 11.10 µg/mL | – | – | – | 0.27 µg/mL (≈ 0.725 µM)
Cc1cc(C)cc(Sc2c(C(C)C)c(=O)[nH]c(=O)n2CC2CCCCC2)c1 [Example 14, 1-(Cyclohexyl)methyl-5-isopropyl-6-(3,5-dimethylphenyl)thio-2,4-pyrimidinedione] | – | 6.40 µg/mL | – | – | – | 0.061 µg/mL (≈ 0.158 µM)
CCc1c(Oc2cc(C)cc(C)c2)n(CC2CCCCC2)c(=O)[nH]c1=O [Example 15, 1-(Cyclohexyl)methyl-5-ethyl-6-(3,5-dimethylphenoxy)-2,4-pyrimidinedione] | – | 9.17 µg/mL | – | – | – | 0.069 µg/mL (≈ 0.194 µM)
Cc1cc(C)cc(Oc2c(C(C)C)c(=O)[nH]c(=O)n2CC2CCCCC2)c1 [Example 16, 1-(Cyclohexyl)methyl-5-isopropyl-6-(3,5-dimethylphenoxy)-2,4-pyrimidinedione] | – | 8.30 µg/mL | – | – | – | 0.065 µg/mL (≈ 0.175 µM)
CCc1c(Sc2cc(C)cc(C)c2)n(Cc2ccccc2)c(=O)[nH]c1=O [Example 19, 1-Benzyl-5-ethyl-6-(3,5-dimethylphenyl)thio-2,4-pyrimidine-dione] | – | 12.59 µg/mL | – | 0.015 µg/mL (≈ 0.0409 µM) | – | –
Cc1cc(C)cc(Sc2c(C(C)C)c(=O)[nH]c(=O)n2Cc2ccccc2)c1 [Example 20, 1-Benzyl-5-isopropyl-6-(3,5-dimethylphenyl)thio-2,4-pyrimidinedione] | – | 11.30 µg/mL | – | 0.012 µg/mL (≈ 0.0315 µM) | – | –
CCc1c(Oc2cc(C)cc(C)c2)n(Cc2ccccc2)c(=O)[nH]c1=O [Example 21, 1-Benzyl-5-ethyl-6-(3,5-dimethylphenoxy)-2,4-pyrimidine-dione] | – | 16.58 µg/mL | – | 0.036 µg/mL (≈ 0.103 µM) | – | –
Cc1cc(C)cc(Oc2c(C(C)C)c(=O)[nH]c(=O)n2Cc2ccccc2)c1 [Example 22, 1-Benzyl-5-isopropyl-6-(3,5-dimethylphenoxy)-2,4-pyrimidinedione] | – | 25.48 µg/mL | – | 0.015 µg/mL (≈ 0.0412 µM) | – | –
Cc1cc(C)cc(C(=O)c2c(C(C)C)c(=O)[nH]c(=O)n2Cc2ccccn2)c1 [Example 114, 1-(Pyridin-2-2-ylmethyl)-5-isopropyl-6-(3,5-dimethyl-benzoyl)-2,4-pyrimidinedione] | 0.0032 µg/mL (≈ 0.00848 µM) | 24.60 µg/mL | – | – | – | –
CCc1c(C(=O)c2cc(C)cc(C)c2)n(Cc2cccc(Br)n2)c(=O)[nH]c1=O [Example 129, 1-(2-Bromopyridib-6-ylmethyl)-5-ethyl-6-(3,5-dimethyl-benzoyl)-2,4-pyrimidinedione] | 0.010 µg/mL (≈ 0.0226 µM) | – | 7.44 µg/mL | – | – | –
CCc1c(Oc2cc(C)cc(C)c2)n(CC2CO2)c(=O)[nH]c1=O (stereo not drawn) [Example 137, 1-(2,3-Epoxypropyl)-5-ethyl-6-(3,5-dimethylphenoxy)-2,4-pyrimidinedione] | – | 40.50 µg/mL | – | – | – | 1.25 µg/mL (≈ 3.95 µM)
Cc1cc(C)cc(Oc2c(C(C)C)c(=O)[nH]c(=O)n2CC2CO2)c1 (stereo not drawn) [Example 138, 1-(2,3-Epoxypropyl)-5-isopropyl-6-(3,5-dimethylphenoxy)-2,4-pyrimidinedione] | – | 39.60 µg/mL | – | – | – | 0.34 µg/mL (≈ 1.03 µM)
CCc1c(C(=O)c2cc(C)cc(C)c2)n(CC2CO2)c(=O)[nH]c1=O (stereo not drawn) [Example 139, 1-(2,3-Epoxypropyl)-5-ethyl-6-(3,5-dimethylbenzoyl)-2,4-pyrimidinedione] | – | >100.00 µg/mL | – | – | – | 0.34 µg/mL (≈ 1.04 µM)
Cc1cc(C)cc(C(=O)c2c(C(C)C)c(=O)[nH]c(=O)n2CC2CO2)c1 (stereo not drawn) [Example 140, 1-(2,3-Epoxypropyl)-5-isopropyl-6-(3,5-dimethylbenzoyl)-2,4-pyrimidinedione] | – | 41.90 µg/mL | – | – | – | 0.094 µg/mL (≈ 0.275 µM)
CCc1c(Sc2cc(C)cc(C)c2)n(Cc2occc2C(=O)OC)c(=O)[nH]c1=O [Example 151, 1-(3-Methoxycarbonyl-2-furanylmethyl)-5-ethyl-6-(3,55 dimethylphenyl)thio-2,4-pyrimidinedione] | 0.015 µg/mL (≈ 0.0362 µM) | – | 8.67 µg/mL | – | – | –
CCC(=O)Cn1c(C(=O)c2cc(C)cc(C)c2)c(CC)c(=O)[nH]c1=O [Example 163, 1-(2-Butanon-1-yl)-5-ethyl-6-(3,5-dimethylbenzoyl) δ 2,4-pyrimidinedione] | 0.0034 µg/mL (≈ 0.00993 µM) | 9.31 µg/mL | – | – | – | –

From patent US6987114B1, “Antiviral pyrimidinedione derivatives and process for the preparation thereof” (Samjin Pharmaceutical Co., Ltd, priority 1999, dated 2006)
